# Experiments:
# Type in all cases: functional
# Acinetobacter baumannii = assay: Antibacterial activity against Acinetobacter baumannii assessed as inhibition of bacterial growth
# Escherichia coli [1] = assay: Antibacterial activity against Escherichia coli clinical isolate ECJH2 assessed as diameter of zone of inhibition by disk diffusion assay
# Escherichia coli [2] = assay: Antibacterial activity against Escherichia coli clinical isolate ECJH3 assessed as diameter of zone of inhibition by disk diffusion assay
# Escherichia coli [3] = assay: Antibacterial activity against Escherichia coli clinical isolate ECJH5 assessed as diameter of zone of inhibition by disk diffusion assay
# Escherichia coli [4] = assay: Antibacterial activity against Escherichia coli clinical isolate ECJH6 assessed as diameter of zone of inhibition by disk diffusion assay
# Escherichia coli [5] = assay: Antibacterial activity against Escherichia coli clinical isolate ECJH7 assessed as diameter of zone of inhibition by disk diffusion assay
# Escherichia coli [6] = assay: Antibacterial activity against Escherichia coli clinical isolate ECJH8 assessed as diameter of zone of inhibition by disk diffusion assay
# Escherichia coli [7] = assay: Antibacterial activity against Escherichia coli clinical isolate ECJH9 assessed as diameter of zone of inhibition by disk diffusion assay
# Escherichia coli [8] = assay: Antibacterial activity against Escherichia coli clinical isolate ECJH10 assessed as diameter of zone of inhibition by disk diffusion assay
# Escherichia coli [9] = assay: Antibacterial activity against Escherichia coli clinical isolate ECJH11 assessed as diameter of zone of inhibition by disk diffusion assay
# Escherichia coli [10] = assay: Antibacterial activity against Escherichia coli clinical isolate ECJH15 assessed as diameter of zone of inhibition by disk diffusion assay
# Escherichia coli [11] = assay: Antibacterial activity against Escherichia coli clinical isolate ECJH16 assessed as diameter of zone of inhibition by disk diffusion assay
# Escherichia coli [12] = assay: Antibacterial activity against Escherichia coli clinical isolate ECJH17 assessed as diameter of zone of inhibition by disk diffusion assay
# Escherichia coli [13] = assay: Antibacterial activity against Escherichia coli clinical isolate ECJH18 assessed as diameter of zone of inhibition by disk diffusion assay
# Escherichia coli [14] = assay: Antibacterial activity against Escherichia coli clinical isolate ECJH19 assessed as diameter of zone of inhibition by disk diffusion assay
# Escherichia coli [15] = assay: Antibacterial activity against Escherichia coli clinical isolate ECJH21 assessed as diameter of zone of inhibition by disk diffusion assay
# Escherichia coli [16] = assay: Antibacterial activity against Escherichia coli clinical isolate ECJH23 assessed as diameter of zone of inhibition by disk diffusion assay
# Escherichia coli [17] = assay: Antibacterial activity against Escherichia coli clinical isolate ECJH24 assessed as diameter of zone of inhibition by disk diffusion assay
# Escherichia coli [18] = assay: Antibacterial activity against Escherichia coli clinical isolate ECJH25 assessed as diameter of zone of inhibition by disk diffusion assay
Structure (SMILES),MIC (Acinetobacter baumannii),diameter of the inhibition zone (DIZ) (Escherichia coli [1]),diameter of the inhibition zone (DIZ) (Escherichia coli [2]),diameter of the inhibition zone (DIZ) (Escherichia coli [3]),diameter of the inhibition zone (DIZ) (Escherichia coli [4]),diameter of the inhibition zone (DIZ) (Escherichia coli [5]),diameter of the inhibition zone (DIZ) (Escherichia coli [6]),diameter of the inhibition zone (DIZ) (Escherichia coli [7]),diameter of the inhibition zone (DIZ) (Escherichia coli [8]),diameter of the inhibition zone (DIZ) (Escherichia coli [9]),diameter of the inhibition zone (DIZ) (Escherichia coli [10]),diameter of the inhibition zone (DIZ) (Escherichia coli [11]),diameter of the inhibition zone (DIZ) (Escherichia coli [12]),diameter of the inhibition zone (DIZ) (Escherichia coli [13]),diameter of the inhibition zone (DIZ) (Escherichia coli [14]),diameter of the inhibition zone (DIZ) (Escherichia coli [15]),diameter of the inhibition zone (DIZ) (Escherichia coli [16]),diameter of the inhibition zone (DIZ) (Escherichia coli [17]),diameter of the inhibition zone (DIZ) (Escherichia coli [18])
Cc1ccc(N/N=C/c2ccc(CN3CCN(c4ccnc5cc(Cl)ccc45)CC3)cc2)cc1,2 µg/mL,–,–,–,–,–,–,–,–,–,–,–,–,–,–,–,–,–,–
CC1(C)S[C@@H]2[C@H](NC(=O)[C@H](N)c3ccccc3)C(=O)N2[C@H]1C(=O)O [AMPICILLIN],–,22 mm,19 mm,18 mm,14 mm,24 mm,21 mm,16 mm,18 mm,21 mm,20 mm,17 mm,16 mm,17 mm,17 mm,18 mm,20 mm,22 mm,22 mm
N/N=C/c1cc(N2CCOCC2)c2cccc(C(F)(F)F)c2n1,2 µg/mL,–,–,–,–,–,–,–,–,–,–,–,–,–,–,–,–,–,–

# Reference: ChEMBL document CHEMBL6078713, “Synthesis and mechanistic studies of 4-aminoquinoline-Isatin molecular hybrids and Schiff's bases as promising antimicrobial agents” (Eur J Med Chem, 2025)
